{"source": "patent US9051342B2", "about": "(priority 2004, dated 2015)", "data": [{"units": {"melting point": "°C"}, "values": [{"smiles": "O=C(O)c1ccc(-c2ccn(-c3ccc4c(c3)OCCO4)c2)cc1", "note": "[Compound 150, 4-[1-(2,3-Dihydro-benzo[1,4]dioxin-6-yl)-1H-pyrrol-3-yl]-benzoic acid]", "melting point": "273 to 276"}, {"smiles": "O=C(O)c1ccc(-c2ccn(-c3ccccc3F)c2)cc1", "note": "[Compound 151, 4-[1-(2-Fluoro-phenyl)-1H-pyrrol-3-yl]-benzoic acid]", "melting point": "202 to 204"}, {"smiles": "O=C(O)c1ccc(-c2ccn(-c3cccc(F)c3)c2)cc1", "note": "[Compound 152, 4-[1-(3-Fluoro-phenyl)-1H-pyrrol-3-yl]-benzoic acid]", "melting point": "211 to 213"}, {"smiles": "O=C(O)c1ccc(-c2ccn(-c3cc(F)cc(F)c3)c2)cc1", "note": "[Compound 153, 4-[1-(3,5-Difluoro-phenyl)-1H-pyrrol-3-yl]-benzoic acid]", "melting point": "243 to 245"}, {"smiles": "O=C(O)c1cccc(-c2ccn(-c3ccc(Cl)cc3)c2)c1", "note": "[Compound 155, 3-[1-(4-Chloro-phenyl)-1H-pyrrol-3-yl]-benzoic acid]", "melting point": "211 to 213"}, {"smiles": "Cc1ccc(-n2ccc(-c3cccc(C(=O)O)c3)c2)cc1", "note": "[Compound 156, 3-(1-p-Tolyl-1H-pyrrol-3-yl)-benzoic acid]", "melting point": "178 to 181"}, {"smiles": "O=C(O)c1ccc(-n2cc3c(n2)-c2ccccc2CC3)cc1", "note": "[Compound 161, 4-(4,5-Dihydro-benzo[g]indazol-2-yl)-benzoic acid]", "melting point": "288 to 290"}, {"smiles": "O=C(O)c1ccc(-n2cc3c(n2)-c2ccccc2OC3)cc1", "note": "[Compound 162]", "melting point": "308 to 310"}, {"smiles": "COc1ccc2c(c1)CCc1cn(-c3ccc(C(=O)O)cc3)nc1-2", "note": "[Compound 163, 4-(7-Methoxy-4,5-dihydro-benzo[g]indazol-2-yl)-benzoic acid]", "melting point": "279 to 280"}, {"smiles": "CN(C)c1cccc(-n2ccc(-c3cccc(C(=O)O)c3)n2)c1", "note": "[Compound 164, 3-[1-(3-Dimethylamino-phenyl)-1H-pyrazol-3-yl]-benzoic acid]", "melting point": "180 to 183"}, {"smiles": "O=C(O)c1cccc(-c2ccn(-c3cccc(Br)c3)n2)c1", "note": "[Compound 165, 3-[1-(3-Bromo-phenyl)-1H-pyrazol-3-yl]-benzoic acid]", "melting point": "180 to 183"}, {"smiles": "Cc1ccc(-n2ccc(-c3cccc(C(=O)O)c3)n2)cc1", "note": "[Compound 166, 3-(1-p-Tolyl-1H-pyrazol-3-yl)-benzoic acid]", "melting point": "192 to 193"}, {"smiles": "Cc1cccc(-n2ccc(-c3cccc(C(=O)O)c3)n2)c1", "note": "[Compound 167, 3-(1-m-Tolyl-1H-pyrazol-3-yl)-benzoic acid]", "melting point": "162 to 164"}, {"smiles": "O=C(O)c1cccc(-c2ccn(-c3ccc([N+](=O)[O-])cc3)n2)c1", "note": "[Compound 168, 3-[1-(4-Nitro-phenyl)-1H-pyrazol-3-yl]-benzoic acid]", "melting point": "280 to 281"}, {"smiles": "O=C(O)c1cccc(-n2ccc(-c3ccccc3F)n2)c1", "note": "[Compound 169, 3-[3-(2-Fluoro-phenyl)-pyrazol-1-yl]-benzoic acid]", "melting point": "166 to 167"}, {"smiles": "Cc1ccc(-c2ccn(-c3cccc(C(=O)O)c3)n2)cc1", "note": "[Compound 170, 3-(3-p-Tolyl-pyrazol-1-yl)-benzoic acid]", "melting point": "180 to 182"}, {"smiles": "COc1cccc(-n2cc(-c3ccc(C(=O)O)cc3)cn2)c1", "note": "[Compound 171, 4-[1-(3-Methoxy-phenyl)-1H-pyrazol-4-yl]-benzoic acid]", "melting point": "211 to 212"}, {"smiles": "O=C(O)c1cccc(-c2cnn(-c3cccc(OC(F)F)c3)c2)c1", "note": "[Compound 172]", "melting point": "179 to 181"}, {"smiles": "O=C(O)c1ccc(-c2cnn(-c3cccc(OC(F)F)c3)c2)cc1", "note": "[Compound 173]", "melting point": "255 to 257"}, {"smiles": "COc1cccc(-n2cc(-c3cccc(C(=O)O)c3)cn2)c1", "note": "[Compound 174, 3-[1-(3-Methoxy-phenyl)-1H-pyrazol-4-yl]-benzoic acid]", "melting point": "156 to 157"}, {"smiles": "O=C(O)c1cccc(-c2ccn(-c3cccc(OCc4ccccc4)c3)n2)c1", "note": "[Compound 175, 3-[1-(3-Benzyloxy-phenyl)-1H-pyrazol-3-yl]-benzoic acid]", "melting point": "152 to 153"}, {"smiles": "O=C(O)c1cccc(-c2ccn(-c3ccc(OCc4ccccc4)cc3)n2)c1", "note": "[Compound 176, 3-[1-(4-Benzyloxy-phenyl)-1H-pyrazol-3-yl]-benzoic acid]", "melting point": "210 to 212"}, {"smiles": "Cc1ccc(-n2cc(-c3cccc(C(=O)O)c3)cn2)cc1", "note": "[Compound 177, 3-(1-p-Tolyl-1H-pyrazol-4-yl)-benzoic acid]", "melting point": "229 to 231"}, {"smiles": "Cc1ccc(-n2cc(-c3ccc(C(=O)O)cc3)cn2)cc1", "note": "[Compound 178, 4-(1-p-Tolyl-1H-pyrazol-4-yl)-benzoic acid]", "melting point": "280 to 282"}, {"smiles": "O=C(O)c1cccc(-c2cnn(-c3ccc(F)cc3F)c2)c1", "note": "[Compound 179, 3-[1-(2,4-Difluoro-phenyl)-1H-pyrazol-4-yl]-benzoic acid]", "melting point": "200 to 202"}, {"smiles": "O=C(O)c1ccc(-c2cnn(-c3ccc(F)cc3F)c2)cc1", "note": "[Compound 180, 4-[1-(2,4-Difluoro-phenyl)-1H-pyrazol-4-yl]-benzoic acid]", "melting point": "258 to 260"}, {"smiles": "O=C(O)c1cccc(-c2cnn(-c3ccc(F)cc3)c2)c1", "note": "[Compound 181, 3-[1-(4-Fluoro-phenyl)-1H-pyrazol-4-yl]-benzoic acid]", "melting point": "235 to 237"}, {"smiles": "O=C(O)c1ccc(-c2cnn(-c3ccc(F)cc3)c2)cc1", "note": "[Compound 182, 4-[1-(4-Fluoro-phenyl)-1H-pyrazol-4-yl]-benzoic acid]", "melting point": "266 to 268"}, {"smiles": "O=C(O)c1cccc(-n2cc3c(n2)-c2cccc(OC(F)F)c2CC3)c1", "note": "[Compound 183, 3-(6-Difluoromethoxy-4,5-dihydro-benzo[g]indazol-2-yl)-benzoic acid]", "melting point": "235 to 237"}, {"smiles": "COc1cccc2c1Cc1cn(-c3cccc(C(=O)O)c3)nc1-2", "note": "[Compound 184, 3-(5-Methoxy-4H-indeno[1,2-c]pyrazol-2-yl)-benzoic acid]", "melting point": "277 to 278"}, {"smiles": "O=C(O)c1cccc(-n2cc3c(n2)-c2cccc(OC(F)F)c2C3)c1", "note": "[Compound 185, 3-(5-Difluoromethoxy-4H-indeno[1,2-c]pyrazol-2-yl)-benzoic acid]", "melting point": "240 to 241"}, {"smiles": "O=C(O)c1ccc(-n2cc3c(n2)-c2cccc(OC(F)F)c2CC3)cc1", "note": "[Compound 186, 4-(6-Difluoromethoxy-4,5-dihydro-benzo[g]indazol-2-yl)-benzoic acid]", "melting point": "282 to 283"}, {"smiles": "COc1cccc2c1Cc1cn(-c3ccc(C(=O)O)cc3)nc1-2", "note": "[Compound 187, 4-(5-Methoxy-4H-indeno[1,2-c]pyrazol-2-yl)-benzoic acid]", "melting point": "311 to 313"}, {"smiles": "O=C(O)c1ccc(-n2cc3c(n2)-c2cccc(OC(F)F)c2C3)cc1", "note": "[Compound 188, 4-(5-Difluoromethoxy-4H-indeno[1,2-c]pyrazol-2-yl)-benzoic acid]", "melting point": "277 to 278"}, {"smiles": "COc1ccccc1-n1ccc(-c2ccc(C(=O)O)cc2)c1", "note": "[Compound 193]", "melting point": "200 to 202"}, {"smiles": "Cc1cccc(-n2ccc(-c3ccc(C(=O)O)cc3)c2)c1", "note": "[Compound 194, 4-(1-m-Tolyl-1H-pyrrol-3-yl)-benzoic acid]", "melting point": "212 to 213"}, {"smiles": "Cc1ccccc1-n1ccc(-c2ccc(C(=O)O)cc2)c1", "note": "[Compound 195, 4-(1-o-Tolyl-1H-pyrrol-3-yl)-benzoic acid]", "melting point": "208 to 209"}, {"smiles": "O=C(O)c1ccc(-c2ccn(-c3ccc(Cl)cc3)c2)cc1", "note": "[Compound 196, 4-[1-(4-Chloro-phenyl)-1H-pyrrol-3-yl]-benzoic acid]", "melting point": "> 350"}, {"smiles": "O=C(O)c1ccc(-c2ccn(-c3ccccc3Cl)c2)cc1", "note": "[Compound 197, 4-[1-(2-Chloro-phenyl)-1H-pyrrol-3-yl]-benzoic acid]", "melting point": "200 to 202"}, {"smiles": "O=C(O)c1cccc(-c2ccn(-c3ccccc3Cl)c2)c1", "note": "[Compound 198, 3-[1-(2-Chloro-phenyl)-1H-pyrrol-3-yl]-benzoic acid]", "melting point": "198 to 200"}, {"smiles": "O=C(O)c1ccc(-c2ccn(-c3ccccc3OC(F)(F)F)c2)cc1", "note": "[Compound 199, 4-[1-(2-Trifluoromethoxy-phenyl)-1H-pyrrol-3-yl]-benzoic acid]", "melting point": "164 to 165"}, {"smiles": "COc1ccccc1-n1ccc(-c2cccc(C(=O)O)c2)c1", "note": "[Compound 200, 3-[1-(2-Methoxy-phenyl)-1H-pyrrol-3-yl]-benzoic acid]", "melting point": "> 350"}, {"smiles": "Cc1ccc(-c2cn(-c3ccc(C(=O)O)cc3)nn2)cc1", "note": "[Compound 201, 4-(4-p-Tolyl-[1,2,3]triazol-1-yl)-benzoic acid]", "melting point": "302 to 303"}, {"smiles": "O=C(O)c1ccc(-n2cc(-c3ccc(C(F)(F)F)cc3)nn2)cc1", "note": "[Compound 202, 4-[4-(4-Trifluoromethyl-phenyl)-[1,2,3]triazol-1-yl]-benzoic acid]", "melting point": "305 to 306"}, {"smiles": "COc1ccc(-c2cn(-c3ccc(C(=O)O)cc3)nn2)cc1", "note": "[Compound 203, 4-[4-(4-Methoxy-phenyl)-[1,2,3]triazol-1-yl]-benzoic acid]", "melting point": "294 to 295"}, {"smiles": "COc1cccc(-c2cn(-c3ccc(C(=O)O)cc3)nn2)c1", "note": "[Compound 204, 4-[4-(3-Methoxyphenyl)-[1,2,3]triazol-1-yl]benzoic acid]", "melting point": "276 to 277"}, {"smiles": "O=C(O)c1ccc(-n2cc(-c3ccc4c(c3)OCO4)cn2)cc1", "note": "[Compound 205, 4-(4-Benzo[1,3]dioxol-5-yl-pyrazol-1-yl)-benzoic acid]", "melting point": "286 to 288"}, {"smiles": "O=C(O)c1ccc(-n2cc(-c3cccc(O)c3)cn2)cc1", "note": "[Compound 206, 4-[4-(3-Hydroxy-phenyl)-pyrazol-1-yl]-benzoic acid]", "melting point": "273 to 275"}, {"smiles": "O=C(O)c1cccc(-n2cc(-c3cccc(O)c3)cn2)c1", "note": "[Compound 207, 3-[4-(3-Hydroxy-phenyl)-pyrazol-1-yl]-benzoic acid]", "melting point": "272 to 274"}, {"smiles": "O=C(O)c1ccc(-n2cc(-c3cccc(OC(F)(F)F)c3)cn2)cc1", "note": "[Compound 208, 4-[4-(3-Trifluoromethoxy-phenyl)-pyrazol-1-yl]-benzoic acid]", "melting point": "225 to 227"}, {"smiles": "O=C(O)c1cccc(-n2cc(-c3cccc(OC(F)(F)F)c3)cn2)c1", "note": "[Compound 209, 3-[4-(3-Trifluoromethoxy-phenyl)-pyrazol-1-yl]-benzoic acid]", "melting point": "166 to 168"}, {"smiles": "O=C(O)c1cccc(-n2cc(-c3cccc(Cl)c3)cn2)c1", "note": "[Compound 210, 3-[4-(3-Chloro-phenyl)-pyrazol-1-yl]-benzoic acid]", "melting point": "178 to 180"}]}]}
